The subject of series [1] is sodium channel (ENaC), canine bronchial epithelia. The series is described as follows: Sodium channel blocking activity: inhibition of short circuit current (ISC) in airway epithelial monolayers in Ussing chambers. In kind it is cell-based. The conditions noted are these: for Fold Amiloride*: potency in canine bronchial epithelia relative to amiloride. On the procedure: One assay used to assess mechanism of action and/or potency of the compounds of the present invention involves the determination of lumenal drug inhibition of airway epithelial sodium currents measured under short circuit current (ISC) using airway epithelial monolayers mounted in Ussing chambers. Cells obtained from freshly excised human, dog, sheep or rodent airways are seeded onto porous 0.4 micron Snapwell™ Inserts (CoStar), cultured at air-liquid interface (ALI) conditions in hormonally defined media, and assayed for sodium transport activity (ISC) while bathed in Krebs Bicarbonate Ringer (KBR) in Using chambers. All test drug additions are to the lumenal bath with half-log dose addition protocols (from 1×10^−11 M to 3×10^−5 M), and the cumulative change in ISC (inhibition) recorded. All drugs are prepared in dimethyl sulfoxide as stock solutions at a concentration of 1×10^−2 M and stored at −20° C. Eight preparations are typically run in parallel; two preparations per run incorporate amiloride and/or benzamil as positive controls. After the maximal concentration (5×10^−5 M) is administered, the lumenal bath is exchanged three times with fresh drug-free KBR solution, and the resultant ISC measured after each wash for approximately 5 minutes in duration. Reversibility is defined as the percent return to the baseline value for sodium current after the third wash. All data from the voltage clamps are collected via a computer interface and analyzed off-line.
Dose-effect relationships for all compounds are considered and analyzed by the Prism 3.0 program. IC50 values, maximal effective concentrations, and reversibility are calculated and compared to amiloride and benzamil as positive controls.
Amiloride was also tested in this assay as a positive control. The results for the compounds of the present invention are reported as fold-enhancement values relative to amiloride.

In general, melting point refers to the temperature of the solid-liquid transition.

Structures are written as SMILES. Structures can show the parent of a compound that is named as a salt.

With `Cl.N=C(NCCCCc1ccc(OCC(O)C(O)CO)cc1)NC(=O)c1nc(Cl)c(N)nc1N` (centres unmarked), the melting point is 148 °C (dec.).
On the same count and under the same terms, in the case of `CC(O)COc1ccc(CCCCNC(=N)NC(=O)c2nc(Cl)c(N)nc2N)cc1` (centres unmarked) (as salt: hydrochloride) [Example 18, 4-[4-(2-Hydroxypropyloxy)phenyl)]butylamidino-3,5-diamino-6-chloropyrazinecarboxamide hydrochloride] it was 212 to 214 °C; in that of `COCCOCCOc1ccc(CCCCNC(=N)NC(=O)c2nc(Cl)c(N)nc2N)cc1` (as salt: hydrochloride) [drawing 50: n=2, 4-[4-(1,4,7-Trioxaoct-1-yl)phenyl]-butyl amidino-3,5-diamino-6-chloropyrazinecarboxamide hydrochloride], 110 to 125 °C.
Same read-out and setting: in the case of `N=C(NCCCCc1ccc(N)cc1)NC(=O)c1nc(Cl)c(N)nc1N` (as salt: hydrochloride) [drawing 60: R=NH2, N=0, 4-[4-(4-Amino)phenyl)]butylamidino-3,5-diamino-6-chloropyrazinecarboxamide hydrochloride] it was 195 to 200 °C; in that of `N=C(NCCCCc1ccc(OCCN)cc1)NC(=O)c1nc(Cl)c(N)nc1N` (as salt: hydrochloride) [drawing 61: R=NH2, n=2, 4-[4-(2-aminoethyloxy)phenyl)butylamidino-3,5-diamino-6-chloropyrazinecarboxamide hydrochloride], > 178 °C (dec.); in that of `N=C(NCCCCc1cccc(OCC(O)CO)c1)NC(=O)c1nc(Cl)c(N)nc1N` (centres unmarked) (as salt: hydrochloride) [drawing 69: R=CH2OH, Meta, 4-[3-(2-,3-Dihydroxypropyloxyl)phenyl)]butylamidino-3,5-diamino-6-chloropyrazinecarboxamide hydrochloride], 91 to 93 °C.
Still for that read-out and setting: to `N=C(NCCCCc1ccccc1OCC(O)CO)NC(=O)c1nc(Cl)c(N)nc1N` (centres unmarked) (as salt: hydrochloride) [drawing 69: R=CH2OH, Ortho, 4-[2-(2-,3-Dihydroxypropyloxy)phenyl)]butylamidino-3,5-diamino-6-chloropyrazinecarboxamide hydrochloride] belongs 200 to 205 °C.
As to `N=C(NCCCCc1cccc(OCCO)c1)NC(=O)c1nc(Cl)c(N)nc1N` (as salt: hydrochloride) [drawing 69: R=H, Meta, 4-[3-(2-Hydroxyethyloxy)phenyl)butylamidino-3,5-diamino-6-chloropyrazinecarboxamide hydrochloride], the melting point is 161 to 163 °C (dec.).
Same read-out and setting: to `N=C(NCCCCc1ccc(OCCOC2CCCCO2)cc1)NC(=O)c1nc(Cl)c(N)nc1N` (centres unmarked) [Example 20] belongs 161 °C.
As to `N=C(N)c1ccc(CCCCNC(N)=NC(=O)c2nc(Cl)c(N)nc2N)cc1` [drawing 62: X=C═NH, Y=NH2, 4-{4-[N′-(3,5-Diamino-6-chloropyrazine-2-carbonyl)guanidino]butyl}benzamidine], the melting point is 140 to 170 °C (dec.). In series [1] (Example 43), the “Fold Amiloride*” value is reported as 53.2 ± 19.3 (2) fold.
Consider `Cl.Cl.N=C(N)NCCOc1ccc(CCCCNC(=N)NC(=O)c2nc(Cl)c(N)nc2N)cc1` [drawing 64: X=NH—C(═NH)—NH2, N-(3,5-diamino-6-chloropyrazine-2-carbonyl)-N′-{4-[4-(2-guanidinoethoxy)-phenyl]butyl}guanidine dihydrochloride], for which the melting point lay in the range of 223 to 230 °C. For the same compound, in series [1] (Example 51), the “Fold potency relative to amiloride” value is 98.0 ± 58.5 (18). Further, the “Fold Amiloride*” value in series [1] (Example 45) is 120.6 ± 60.8 (11) fold.
`Cl.Cl.N=C(NCCCCc1ccc(OCCN(C[C@@H](O)[C@@H](O)CO)C[C@@H](O)[C@@H](O)CO)cc1)NC(=O)c1nc(Cl)c(N)nc1N` [drawing 67: O CH2 CH2 NR R^a,c (r18), N-[4-(4-{2-[bis-((2R,3S)-2,3,4-trihydroxybutyl)amino]ethoxy}phenyl)-butyl]-N′-(3,5-diamino-6-chloropyrazine-2-carbonyl)guanidine dihydrochloride]: the melting point is 93 to 96 °C (dec.). The “Fold Amiloride*” value in series [1] (Example 48) is recorded as 56.0 (1) fold.
For `CCOC(=O)COc1ccc(CCCCNC(N)=NC(=O)c2nc(Cl)c(N)nc2N)cc1` [drawing 68: OCH2CO2ET, (4-{4-[N′-(3,5-Diamino-6-chloropyrazine-2-carbonyl)guanidino]butyl}phenoxy)acetic acid ethyl ester], the “Fold Amiloride*” value in series [1] (Example 49) was 20 (1) fold.
Turning to `N=C(NCCCCc1cccc(OCC(O)CO)c1)NC(=O)c1nc(Cl)c(N)nc1N` (centres unmarked) [drawing 69: R=CH2OH, Meta, 4-[3-(2-,3-Dihydroxypropyloxyl)phenyl)]butylamidino-3,5-diamino-6-chloropyrazinecarboxamide hydrochloride], in series [1] (Example 50), the “Fold Amiloride*” value is 40 (1) fold.
The same measure, in the same setting: to `N=C(NCCCCc1ccccc1OCC(O)CO)NC(=O)c1nc(Cl)c(N)nc1N` (centres unmarked) [drawing 69: R=CH2OH, Ortho, 4-[2-(2-,3-Dihydroxypropyloxy)phenyl)]butylamidino-3,5-diamino-6-chloropyrazinecarboxamide hydrochloride] belongs 24.0 ± 1.0 (2) fold; to `N=C(NCCCCc1cccc(OCCO)c1)NC(=O)c1nc(Cl)c(N)nc1N` [drawing 69: R=H, Meta, 4-[3-(2-Hydroxyethyloxy)phenyl)butylamidino-3,5-diamino-6-chloropyrazinecarboxamide hydrochloride], 41.1 ± 8.5 (2) fold.

For the origin of these results see US10167266B2, “Sodium channel blockers” (Parion Sciences, Inc., priority 2002, dated 2019).
